Experimental data taken from ChEMBL document CHEMBL1201862, “PubChem BioAssay data set” (2004).
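Compound exposure: 48 hours, 5 concentrations, 96-well plates. Abbreviation: GI50, concentration required for 50% inhibition of growth.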 Activity calls are given as the source filed them. No stated cut-off is given here; in the data, active = GI50 up to about 1.1 µM and inactive = higher.

What was measured:
Assay in all cases: DTP human tumour cell line panel, 48 h
COLO 205 = tested on: COLO 205
IGROV-1 = tested on: IGROV-1
EKVX = tested on: EKVX
NCI-H226 = tested on: NCI-H226
SF-268 = tested on: SF-268
SF-295 = tested on: SF-295
A549 = tested on: A549
RPMI-8226 = tested on: RPMI-8226
SNB-75 = tested on: SNB-75
OVCAR-5 = tested on: OVCAR-5
NCI-H460 = tested on: NCI-H460
HL-60 = tested on: HL-60
SNB-19 = tested on: SNB-19
OVCAR-8 = tested on: OVCAR-8
LOX IMVI = tested on: LOX IMVI
NCI-H522 = tested on: NCI-H522
HCT-15 = tested on: HCT-15
CAKI-1 = tested on: CAKI-1
Malme-3M = tested on: Malme-3M

SMILES	GI50 (COLO 205)	GI50 (IGROV-1)	GI50 (EKVX)	GI50 (NCI-H226)	GI50 (SF-268)	GI50 (SF-295)	GI50 (A549)	GI50 (RPMI-8226)	GI50 (SNB-75)	GI50 (OVCAR-5)	GI50 (NCI-H460)	GI50 (HL-60)	GI50 (SNB-19)	GI50 (OVCAR-8)	GI50 (LOX IMVI)	GI50 (NCI-H522)	GI50 (HCT-15) [µM]	GI50 (CAKI-1)	GI50 (Malme-3M)
O=C1C(c2ccc([N+](=O)[O-])cc2)=[N+]([O-])c2ccc([N+](=O)[O-])cc21	35.3 µM (inactive)	26.4 µM (inactive)	> 100 µM (inactive)	37.2 µM (inactive)	40.8 µM (inactive)	56.1 µM (inactive)	37.8 µM (inactive)	15.5 µM (inactive)	62.1 µM (inactive)	> 100 µM (inactive)	> 100 µM (inactive)	19.5 µM (inactive)	98.6 µM (inactive)	29.3 µM (inactive)	46.5 µM (inactive)				
CN(C)/N=N/c1ccc([N+](=O)[O-])cc1C(N)=O	> 100 µM (inactive)	> 100 µM (inactive)	> 71.3 µM (inactive)	> 100 µM (inactive)	> 100 µM (inactive)	> 100 µM (inactive)	> 100 µM (inactive)	> 100 µM (inactive)	> 100 µM (inactive)	> 100 µM (inactive)	> 100 µM (inactive)		> 66.5 µM (inactive)	> 100 µM (inactive)	> 100 µM (inactive)	> 92.7 µM (inactive)	> 100	> 100 µM (inactive)	> 100 µM (inactive)
N=C(NNS(=O)(=O)c1ccccc1)Oc1ccc(Cl)cc1	35.4 µM (inactive)	> 100 µM (inactive)	> 100 µM (inactive)	> 100 µM (inactive)	> 100 µM (inactive)	> 100 µM (inactive)	> 100 µM (inactive)	70.1 µM (inactive)	> 100 µM (inactive)	> 100 µM (inactive)	> 100 µM (inactive)	21.1 µM (inactive)	> 100 µM (inactive)	> 100 µM (inactive)	48.3 µM (inactive)	> 100 µM (inactive)	33.1	> 100 µM (inactive)	> 100 µM (inactive)
CC(C)(C)C(=O)OCC1OC(N=[N+]=[N-])C(OC(=O)C(C)(C)C)C(OC(=O)C(C)(C)C)C1OC(=O)C(C)(C)C (stereo unspecified)	> 100 µM (inactive)	> 100 µM (inactive)	> 100 µM (inactive)		> 100 µM (inactive)	> 100 µM (inactive)	> 100 µM (inactive)	> 100 µM (inactive)	> 100 µM (inactive)	> 100 µM (inactive)	> 100 µM (inactive)	58.6 µM (inactive)	> 100 µM (inactive)	> 100 µM (inactive)		> 100 µM (inactive)	> 100	> 100 µM (inactive)	> 100 µM (inactive)
COc1cc2c(cc1O)CCN[C@@]21CS[C@H]2c3c(OC(C)=O)c(C)c4c(c3C(COC1=O)N1C2C2NC(Cc3cc(C)c(OC)c(O)c32)[C@@H]1C#N)OCO4 (stereo partly specified)	< 0.01 µM (active)	< 0.01 µM (active)	< 0.01 µM (active)	< 0.01 µM (active)	< 0.01 µM (active)		< 0.01 µM (active)	< 0.01 µM (active)	< 0.01 µM (active)		< 0.01 µM (active)	< 0.01 µM (active)	< 0.01 µM (active)		< 0.01 µM (active)		< 0.01		< 0.01 µM (active)
COC[C@@H](Cc1ccc(OC)c(OC)c1)[C@@H](COC)Cc1ccc(OC)c(OC)c1	> 100 µM (inactive)	> 100 µM (inactive)	> 100 µM (inactive)		> 100 µM (inactive)	> 100 µM (inactive)	> 100 µM (inactive)		> 100 µM (inactive)	> 100 µM (inactive)	> 100 µM (inactive)	> 100 µM (inactive)	> 100 µM (inactive)	> 100 µM (inactive)	> 100 µM (inactive)	64.1 µM (inactive)	> 100		> 100 µM (inactive)
Nc1nnc(CCC(=O)Nc2cc(Cl)ccc2Cl)n1N	> 100 µM (inactive)	> 100 µM (inactive)	> 100 µM (inactive)	> 100 µM (inactive)	> 100 µM (inactive)	> 100 µM (inactive)	> 100 µM (inactive)	> 100 µM (inactive)	> 100 µM (inactive)	> 100 µM (inactive)	> 100 µM (inactive)	> 100 µM (inactive)	> 100 µM (inactive)	> 100 µM (inactive)	> 100 µM (inactive)	> 100 µM (inactive)	> 100	> 100 µM (inactive)	> 100 µM (inactive)
CC(C)(Br)C1(O)CCCN1C(=O)c1ccccc1 (stereo unspecified)	> 100 µM (inactive)	> 100 µM (inactive)	> 100 µM (inactive)		> 100 µM (inactive)	25.1 µM (inactive)	> 100 µM (inactive)		97.5 µM (inactive)	> 100 µM (inactive)	> 100 µM (inactive)	> 100 µM (inactive)	> 100 µM (inactive)	> 100 µM (inactive)	> 100 µM (inactive)	> 100 µM (inactive)	> 100		> 100 µM (inactive)
COc1ccc([Se][Se]c2ccc(OC)cc2OC)c(OC)c1	6.79 µM (inactive)	3.25 µM (inactive)		2.9 µM (inactive)	2.19 µM (inactive)	2.1 µM (inactive)	8.89 µM (inactive)	2.48 µM (inactive)	1.59 µM (inactive)		4.29 µM (inactive)	2.43 µM (inactive)	3.64 µM (inactive)	4.75 µM (inactive)	2 µM (inactive)	1.86 µM (inactive)	1.84	3.54 µM (inactive)	4.54 µM (inactive)
C=COCCCOc1ccccc1	> 100 µM (inactive)	0.145 µM (active)	> 100 µM (inactive)	> 100 µM (inactive)	> 100 µM (inactive)		> 100 µM (inactive)	> 100 µM (inactive)		> 100 µM (inactive)	> 100 µM (inactive)	> 100 µM (inactive)	> 100 µM (inactive)	> 100 µM (inactive)	> 100 µM (inactive)	> 100 µM (inactive)	> 100	> 100 µM (inactive)	> 100 µM (inactive)
COC(=O)/C=C/C(=O)C1C(C(=O)OC)C2(C(=O)OC)CCC1(C(=O)OC)N2 (stereo unspecified)	> 100 µM (inactive)	> 100 µM (inactive)	> 100 µM (inactive)		> 100 µM (inactive)	> 100 µM (inactive)	> 100 µM (inactive)	> 100 µM (inactive)		> 100 µM (inactive)		> 100 µM (inactive)	> 100 µM (inactive)	> 100 µM (inactive)			> 100	> 100 µM (inactive)	> 100 µM (inactive)
C/C(=N/NS(=O)(=O)c1ccc([N+](=O)[O-])cc1)c1cccc[n+]1[O-]		> 100 µM (inactive)	> 100 µM (inactive)		> 100 µM (inactive)	> 100 µM (inactive)	> 100 µM (inactive)	> 100 µM (inactive)	> 100 µM (inactive)	> 100 µM (inactive)	> 100 µM (inactive)	> 100 µM (inactive)	> 100 µM (inactive)	> 100 µM (inactive)		> 100 µM (inactive)	> 100	> 100 µM (inactive)	
O=C(NNC(=O)c1nsc2ccccc12)c1ccc(Cl)cc1	23.7 µM (inactive)	34.5 µM (inactive)	18.2 µM (inactive)		17.7 µM (inactive)		21.7 µM (inactive)	20.4 µM (inactive)	2.93 µM (inactive)	20.4 µM (inactive)	> 100 µM (inactive)	23.7 µM (inactive)	19.1 µM (inactive)	29.2 µM (inactive)	18.1 µM (inactive)		18.2		
O=C(O)c1cc(CCc2ccc(O)c(O)c2)ccc1O	> 100 µM (inactive)	> 100 µM (inactive)		> 100 µM (inactive)	> 100 µM (inactive)	> 100 µM (inactive)	> 100 µM (inactive)		> 100 µM (inactive)	> 100 µM (inactive)	> 100 µM (inactive)	23.2 µM (inactive)	> 100 µM (inactive)	> 100 µM (inactive)		> 100 µM (inactive)	> 100	> 100 µM (inactive)	> 100 µM (inactive)
CC(C)(C)OC(=O)NC1CCCC1=O (stereo unspecified)			> 100 µM (inactive)	> 100 µM (inactive)	> 100 µM (inactive)	> 100 µM (inactive)	> 100 µM (inactive)		40.9 µM (inactive)	> 100 µM (inactive)	> 100 µM (inactive)		> 100 µM (inactive)	> 100 µM (inactive)	> 100 µM (inactive)	> 100 µM (inactive)		> 100 µM (inactive)	> 100 µM (inactive)
Cc1c(N(Cc2ccccc2)Cc2ccccc2)nc(S(C)(=O)=O)nc1S(C)(=O)=O		1.74 µM (inactive)	1.53 µM (inactive)	12.7 µM (inactive)	1.95 µM (inactive)	17.7 µM (inactive)	15.3 µM (inactive)	2.74 µM (inactive)		7.4 µM (inactive)	5.14 µM (inactive)	2.09 µM (inactive)	13.4 µM (inactive)	1.85 µM (inactive)	1.84 µM (inactive)	1.73 µM (inactive)	2.56	8.07 µM (inactive)	5.36 µM (inactive)
CCCCNC1=C2C(=O)NN=C2CO1	> 100 µM (inactive)	> 100 µM (inactive)	> 100 µM (inactive)	> 100 µM (inactive)	> 100 µM (inactive)	> 100 µM (inactive)	> 100 µM (inactive)	> 100 µM (inactive)	> 100 µM (inactive)	> 100 µM (inactive)	> 100 µM (inactive)	> 100 µM (inactive)	> 100 µM (inactive)	> 100 µM (inactive)	> 100 µM (inactive)	> 100 µM (inactive)	> 100	> 100 µM (inactive)	
